Results taken from ChEMBL document CHEMBL1909046, “DrugMatrix in vitro pharmacology data”.

What was measured:
[1] = target: T1, Alpha-2C adrenergic receptor (Homo sapiens, UniProt P18825); assay: DRUGMATRIX: Adrenergic Alpha-2C radioligand binding (ligand: [3H] MK-912); format: cell membranes, Sf9, Membrane; conditions: for Ki: read-out: Ki
T1 sequence (P18825 whole entry): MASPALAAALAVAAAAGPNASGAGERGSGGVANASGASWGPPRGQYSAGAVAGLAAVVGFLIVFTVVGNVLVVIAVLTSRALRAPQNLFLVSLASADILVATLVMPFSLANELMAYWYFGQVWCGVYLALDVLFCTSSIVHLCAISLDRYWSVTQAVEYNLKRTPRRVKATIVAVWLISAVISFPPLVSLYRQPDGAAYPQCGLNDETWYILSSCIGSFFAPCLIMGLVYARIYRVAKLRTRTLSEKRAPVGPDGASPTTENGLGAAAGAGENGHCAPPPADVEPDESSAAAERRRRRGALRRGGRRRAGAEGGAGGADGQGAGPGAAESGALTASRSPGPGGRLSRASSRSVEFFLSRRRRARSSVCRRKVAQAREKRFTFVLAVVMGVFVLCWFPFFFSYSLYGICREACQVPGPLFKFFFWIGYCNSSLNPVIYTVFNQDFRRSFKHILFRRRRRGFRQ

[2] = target: 5-hydroxytryptamine receptor 4 (Cavia porcellus, UniProt O70528); format: cell membranes, Dunkin-Hartley, Striatum, Membrane; further: in other assays of this panel Not Active means under 50% inhibition at 10 µM
Chain of 5-hydroxytryptamine receptor 4 (O70528 whole entry): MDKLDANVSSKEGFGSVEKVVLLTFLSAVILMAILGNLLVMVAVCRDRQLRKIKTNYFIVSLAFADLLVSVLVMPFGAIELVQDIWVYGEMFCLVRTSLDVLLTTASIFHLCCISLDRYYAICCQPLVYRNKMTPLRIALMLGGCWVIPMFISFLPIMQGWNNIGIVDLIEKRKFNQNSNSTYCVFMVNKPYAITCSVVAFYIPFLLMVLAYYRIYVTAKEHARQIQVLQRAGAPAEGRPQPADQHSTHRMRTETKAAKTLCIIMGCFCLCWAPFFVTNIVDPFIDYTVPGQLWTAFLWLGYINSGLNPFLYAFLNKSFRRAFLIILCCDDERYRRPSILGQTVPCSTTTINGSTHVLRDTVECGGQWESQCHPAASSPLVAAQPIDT

[3] = target: C-C chemokine receptor type 2 (Homo sapiens, UniProt P41597); format: cell membranes, Membrane; conditions: cho-k1; further: in other assays of this panel Not Active means under 50% inhibition at 10 µM
Chain of C-C chemokine receptor type 2 (P41597 whole entry): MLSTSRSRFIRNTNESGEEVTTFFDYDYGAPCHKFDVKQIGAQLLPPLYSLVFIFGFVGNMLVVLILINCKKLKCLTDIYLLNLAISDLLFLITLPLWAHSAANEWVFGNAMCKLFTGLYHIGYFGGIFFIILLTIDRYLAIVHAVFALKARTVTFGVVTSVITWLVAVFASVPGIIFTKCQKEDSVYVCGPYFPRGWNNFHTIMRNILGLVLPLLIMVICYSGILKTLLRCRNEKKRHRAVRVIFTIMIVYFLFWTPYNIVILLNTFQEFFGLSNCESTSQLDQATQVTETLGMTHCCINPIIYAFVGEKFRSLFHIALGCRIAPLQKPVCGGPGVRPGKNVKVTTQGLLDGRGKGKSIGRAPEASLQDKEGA

[4] = target: T2, Cholecystokinin receptor type A (Homo sapiens, UniProt P32238); format: cell membranes, Membrane; conditions: 1321-n1; further: in other assays of this panel Not Active means under 50% inhibition at 10 µM
T2 sequence (P32238 whole entry): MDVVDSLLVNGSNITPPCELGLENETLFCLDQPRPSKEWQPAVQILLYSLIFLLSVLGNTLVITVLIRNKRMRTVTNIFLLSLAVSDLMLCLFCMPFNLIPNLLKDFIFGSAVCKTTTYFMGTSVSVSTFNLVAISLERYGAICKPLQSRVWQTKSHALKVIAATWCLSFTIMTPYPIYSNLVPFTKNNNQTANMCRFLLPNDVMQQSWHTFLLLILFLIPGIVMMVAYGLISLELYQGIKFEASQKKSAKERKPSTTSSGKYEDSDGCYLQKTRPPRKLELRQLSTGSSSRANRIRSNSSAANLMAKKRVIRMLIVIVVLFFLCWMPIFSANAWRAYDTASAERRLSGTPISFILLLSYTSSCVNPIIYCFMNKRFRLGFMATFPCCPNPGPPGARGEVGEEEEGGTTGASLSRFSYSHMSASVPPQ

[5] = target: Sodium-dependent dopamine transporter (Homo sapiens, UniProt Q01959); assay: DRUGMATRIX: Dopamine Transporter radioligand binding (ligand: [125I] RTI-55); format: cell membranes, CHO-K1, Membrane; conditions: Not Active = under 50% inhibition at 10 µM; for Ki: read-out: Ki
Chain of Sodium-dependent dopamine transporter (Q01959 whole entry): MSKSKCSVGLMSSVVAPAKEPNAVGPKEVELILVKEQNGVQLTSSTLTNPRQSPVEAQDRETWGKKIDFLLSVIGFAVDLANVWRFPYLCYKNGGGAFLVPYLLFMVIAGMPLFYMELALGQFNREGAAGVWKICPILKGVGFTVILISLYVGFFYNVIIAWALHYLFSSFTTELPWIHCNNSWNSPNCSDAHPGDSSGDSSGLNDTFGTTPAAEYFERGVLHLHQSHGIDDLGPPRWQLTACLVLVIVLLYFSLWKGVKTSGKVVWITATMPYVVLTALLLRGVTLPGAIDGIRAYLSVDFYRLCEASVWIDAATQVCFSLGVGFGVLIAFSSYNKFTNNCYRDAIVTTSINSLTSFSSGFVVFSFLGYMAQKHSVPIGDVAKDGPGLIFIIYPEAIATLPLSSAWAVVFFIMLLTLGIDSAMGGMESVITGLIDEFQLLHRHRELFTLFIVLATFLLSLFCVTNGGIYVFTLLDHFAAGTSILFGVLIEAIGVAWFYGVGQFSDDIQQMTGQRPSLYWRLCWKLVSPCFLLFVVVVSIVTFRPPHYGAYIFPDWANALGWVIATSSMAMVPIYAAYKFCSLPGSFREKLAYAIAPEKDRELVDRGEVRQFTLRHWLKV

Leukotriene C4 synthase = target: T3, Leukotriene C4 synthase (Cavia porcellus, UniProt A6XA80); format: tissue-based, Lung;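 further: enzyme inhibition assay of leukotriene C4 synthase, using LTA4 as the substrate; in other assays of this panel Not Active means under 50% inhibition at 10 µM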
T3 sequence (A6XA80 whole entry): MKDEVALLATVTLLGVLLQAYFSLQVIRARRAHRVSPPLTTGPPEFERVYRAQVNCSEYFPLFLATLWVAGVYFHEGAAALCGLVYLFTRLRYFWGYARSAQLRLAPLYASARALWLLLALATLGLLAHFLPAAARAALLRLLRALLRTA

| SMILES | IC50 ([1]; sf9) | IC50 [2] | IC50 [3] | IC50 [4] | IC50 ([5]; cho-k1) | IC50 (Leukotriene C4 synthase) | IC50 ([5]; read-out: IC50) [nM] | Ki [5] [nM] | IC50 ([1]; read-out: IC50) [nM] | Ki [1] [nM] |
| --- | --- | --- | --- | --- | --- | --- | --- | --- | --- | --- |
| C[C@@H]1C[C@H]2[C@@H]3CCC4=CC(=O)C=C[C@]4(C)[C@@]3(F)[C@@H](O)C[C@]2(C)[C@H]1C(=O)CO [DESOXIMETASONE] | Not Active | Not Active | Not Active | Not Active | Not Active | Not Active | – | – | – | – |
| C[C@@H]1C[C@H]2[C@@H]3CCC4=CC(=O)C=C[C@]4(C)[C@@]3(F)[C@@H](O)C[C@]2(C)[C@@]1(O)C(=O)CO [DEXAMETHASONE] | Not Active | Not Active | Not Active | Not Active | Not Active | Not Active | – | – | – | – |
| CN(C)CC[C@@H](c1ccc(Cl)cc1)c1ccccn1 [DEXCHLORPHENIRAMINE] | Not Active | Not Active | Not Active | Not Active | – | Not Active | 931 | 739 | – | – |
| C[C@@H]1CC[C@@]2(OC1)O[C@H]1[C@@H](O)[C@H]3[C@@H]4CC[C@H]5C[C@@H](O[C@@H]6O[C@H](CO)[C@H](O[C@@H]7O[C@H](CO)C(O)[C@H](O[C@@H]8OC[C@@H](O)[C@H](O)[C@H]8O)[C@H]7O[C@@H]7O[C@H](CO)[C@H](O)[C@H](O[C@@H]8O[C@H](CO)[C@@H](O)[C@H](O)[C@H]8O)[C@H]7O)[C@H](O)[C@H]6O)[C@H](O)C[C@]5(C)[C@H]4CC[C@]3(C)[C@H]1[C@@H]2C (stereo partly specified) [DIGITONIN] | Not Active | Not Active | Not Active | Not Active | Not Active | Not Active | – | – | – | – |
| OC(CCCN1CCCCC1)(c1ccccc1)c1ccccc1 [DIPHENIDOL] | Not Active | Not Active | Not Active | Not Active | Not Active | Not Active | – | – | – | – |
| C[C@H]1O[C@@H](n2cc(F)c(=O)[nH]c2=O)[C@H](O)[C@@H]1O [DOXIFLURIDINE] | Not Active | Not Active | Not Active | Not Active | Not Active | Not Active | – | – | – | – |
| Cn1c(=O)c2c(ncn2CC(O)CO)n(C)c1=O (stereo unspecified) [DYPHYLLINE] | Not Active | Not Active | Not Active | Not Active | Not Active | Not Active | – | – | – | – |
| CC[C@H]1CN2CCc3cc(OC)c(OC)cc3[C@@H]2C[C@@H]1C[C@H]1NCCc2cc(OC)c(OC)cc21 [EMETINE] | – | Not Active | Not Active | Not Active | Not Active | Not Active | – | – | 182 | 26 |
| COC(=O)CCc1ccc(OCC(O)CNC(C)C)cc1 (stereo unspecified) [ESMOLOL] | Not Active | Not Active | Not Active | Not Active | Not Active | Not Active | – | – | – | – |
| CCC1(C)CC(=O)NC1=O (stereo unspecified) [ETHOSUXIMIDE] | Not Active | Not Active | Not Active | Not Active | Not Active | Not Active | – | – | – | – |
| C#C[C@]1(OC(C)=O)CC[C@H]2[C@@H]3CCC4=C[C@@H](OC(C)=O)CC[C@@H]4[C@H]3CC[C@@]21C [ETHYNODIOL DIACETATE] | Not Active | Not Active | Not Active | Not Active | Not Active | Not Active | – | – | – | – |
| COc1cc([C@@H]2c3cc4c(cc3[C@@H](O[C@@H]3O[C@@H]5CO[C@@H](C)O[C@H]5[C@H](O)[C@H]3O)[C@H]3COC(=O)[C@H]23)OCO4)cc(OC)c1O [ETOPOSIDE] | Not Active | Not Active | Not Active | Not Active | Not Active | Not Active | – | – | – | – |
| C=CCc1ccc(O)c(OC)c1 [EUGENOL] | Not Active | Not Active | Not Active | Not Active | Not Active | Not Active | – | – | – | – |
| CC(C(=O)O)c1cccc(Oc2ccccc2)c1 (stereo unspecified) [FENOPROFEN] | Not Active | Not Active | Not Active | Not Active | Not Active | Not Active | – | – | – | – |
| CC(C)(C)NC(=O)[C@H]1CC[C@H]2[C@@H]3CC[C@H]4NC(=O)C=C[C@]4(C)[C@H]3CC[C@]12C [FINASTERIDE] | Not Active | Not Active | Not Active | Not Active | Not Active | Not Active | – | – | – | – |
| COc1ccc2c3c1O[C@H]1C[C@@H](O)C=C[C@@]31CCN(C)C2 [GALANTAMINE] | Not Active | Not Active | Not Active | Not Active | Not Active | Not Active | – | – | – | – |

| SMILES | IC50 ([1]; sf9) | IC50 [2] | IC50 [3] | IC50 [4] | IC50 ([5]; cho-k1) | IC50 (Leukotriene C4 synthase) | IC50 ([5]; read-out: IC50) [nM] | Ki [5] [nM] | IC50 ([1]; read-out: IC50) [nM] | Ki [1] [nM] |
| --- | --- | --- | --- | --- | --- | --- | --- | --- | --- | --- |
| Nc1ccn([C@@H]2O[C@H](CO)[C@@H](O)C2(F)F)c(=O)n1 [GEMCITABINE] | Not Active | Not Active | Not Active | Not Active | Not Active | Not Active | – | – | – | – |
| CC(C)=CCC/C(C)=C/CO [GERANIOL] | Not Active | Not Active | Not Active | Not Active | Not Active | Not Active | – | – | – | – |
| Oc1c(Cl)cc(Cl)c(Cl)c1Cc1c(O)c(Cl)cc(Cl)c1Cl [HEXACHLOROPHENE] | – | Not Active | Not Active | Not Active | Not Active | Not Active | – | – | 6980 | 1010 |
| NNc1nncc2ccccc12 [HYDRALAZINE] | Not Active | Not Active | Not Active | Not Active | Not Active | Not Active | – | – | – | – |
| CC(=O)[C@@]1(O)CC[C@H]2[C@@H]3CCC4=CC(=O)CC[C@]4(C)[C@H]3CC[C@@]21C [HYDROXYPROGESTERONE] | Not Active | Not Active | Not Active | Not Active | – | Not Active | 6910 | 5490 | – | – |
| COC1=C(OC)C(=O)C(CCCCCCCCCCO)=C(C)C1=O [IDEBENONE] | Not Active | Not Active | Not Active | Not Active | Not Active | Not Active | – | – | – | – |
| CC(C)NNC(=O)c1ccncc1 [IPRONIAZID] | Not Active | Not Active | Not Active | Not Active | Not Active | Not Active | – | – | – | – |
| Cc1c(OCC(F)(F)F)ccnc1C[S+]([O-])c1nc2ccccc2[nH]1 (stereo unspecified) [LANSOPRAZOLE] | Not Active | Not Active | Not Active | Not Active | Not Active | Not Active | – | – | – | – |
| O=c1cc(N2CCOCC2)oc2c(-c3ccccc3)cccc12 [LY-294002] | Not Active | Not Active | Not Active | Not Active | Not Active | Not Active | – | – | – | – |
| COc1ccc2[nH]cc(CCNC(C)=O)c2c1 [MELATONIN] | Not Active | Not Active | Not Active | Not Active | Not Active | Not Active | – | – | – | – |
| CCN(CC)CCOCCC1=CCC2CC1C2(C)C (stereo unspecified) [MYRTECAINE] | Not Active | Not Active | Not Active | Not Active | Not Active | Not Active | – | – | – | – |
| O=C(O)c1cccnc1Nc1cccc(C(F)(F)F)c1 [NIFLUMIC ACID] | Not Active | Not Active | Not Active | Not Active | Not Active | Not Active | – | – | – | – |
| O=C(N/N=C/c1ccc([N+](=O)[O-])o1)c1cc([N+](=O)[O-])cc([N+](=O)[O-])c1O [NIFURSOL] | Not Active | Not Active | Not Active | Not Active | Not Active | Not Active | – | – | – | – |
| COC(=O)Nc1nc2ccc(C(=O)c3cccs3)cc2[nH]1 [NOCODAZOLE] | Not Active | Not Active | Not Active | Not Active | – | Not Active | 6230 | 4950 | – | – |
| C#CC1(O)CC[C@H]2[C@@H]3CCC4=CC(=O)CC[C@@H]4[C@H]3CC[C@@]21CC (stereo partly specified) [NORGESTREL] | Not Active | Not Active | Not Active | Not Active | Not Active | Not Active | – | – | – | – |
